Test results published in patent US9296687B2, “Modulators of HSP70/DnaK function and methods of use thereof” (The Trustees of the University of Pennsylvania, priority 2008, dated 2016).
Peptide text beside a SMILES is read from it. * marks the point of attachment. Cbz = O=C(OCc1ccccc1)*; CH2F = FC*

Assays:
p62/SQSTM1, LC3 = assay: Autophagy markers in cultured cells (vacuoles, LC3-II, p62/SQSTM1, electron microscopy); format: cell-based, human; details: for p62/SQSTM1 oligomers in soluble and detergent-insoluble fractions: 24 h, PES 20 μM, Velcade 100 nM, CQ 50 μM, 17-AAG 15 nM
20S proteasome = assay: Cell-based 20S proteasome activity assay; parameters: species or system human; details: H1299 or A875 cells; PES 20 μM, 17-AAG 1 μM, CQ 5 μM
EGFR, HER2/ErbB2, AKT = assay: Western blot of HSP70/HSP90 client proteins in detergent-soluble and detergent-insoluble fractions; format: cell-based, human
Method: FIG. 17. PES impairs the proteasome system. (A) Cell-based 20S proteasome activity assay of H1299 or A875 human tumor cells treated with DMSO, 20 μM PES, 100 nM Velcade (proteasome inhibitor), 1 μM 17-AAG (HSP90 inhibitor), 5 μM CQ (lysosome inhibitor), or 20S proteasome inhibitor epigallocatechin gallate (EGCG). Each graphical representation indicates the mean±SD of at least three independent cultures relative to control (DMSO-treated) cells. (B) Cell extracts from SKBR3 human breast carcinoma cells, treated either with 20 μM PES or 1 μM 17-AAG for 24 h, were immunoprecipitated (IP) using anti-HSP70 or anti-HSP90 antibody. […] MTT assays of MCF7 human breast carcinoma cells pretreated with DMSO, or 5 μM PES for 1 h, followed by the addition of indicated amount of 17-AAG for 47 h. The results represent the mean±SD of at least three independent analysis of cultures relative to control (DMSO-treated) cells. (D and E) H1299 cells (D) or SKBR3 cells (E) were treated with DMSO, 20 μM PES, 17-AAG, or 17-AAG plus bortezomib (Velcade) as indicated; harvested in 1% NP-40 containing lysis buffer; fractionated into detergent-soluble and detergent-insoluble preparations; and assayed by western blot.
FIG. 18. Accumulation of HSP90 client proteins in the protein detergent-insoluble fraction following PES. (A) SKOV3 cells were treated with DMSO, 10 μM PES, or 20 μM PES for 24 h. Note the marked accumulation of EGFR, HER2/ErbB2, and AKT in the detergent-insoluble fraction following 20 μM PES treatment. (B and C) SKOV3 (B) or SKBR3 (C) cells were treated with DMSO, 20 μM PES, or 1 μM 17-AAG, as indicated, for 24 h. Cells were harvested in 1% NP-40 containing lysis buffer, fractionated into detergent-soluble and detergent-insoluble preparations, and assayed by western blot for the proteins indicated.
The HSP70 and HSC70 proteins bind to exposed hydrophobic regions of nascent-, translocating-, misfolded- or partially unfolded-proteins. These ATP-dependent molecular chaperones act in multi-protein complexes in conjunction with one or more regulatory co-chaperones to carry out multiple cellular functions. […] This is illustrated for H1299 cells treated with 10 or 20 μM PES for 24 h. […] This correlates with a reduced abundance of complexes containing HSP70, or HSC70, together with client proteins or co-chaperones (FIGS. 19A and 19B). […] However, since HSP70/HSC70 act as critical co-chaperones for HSP90, for example in client protein recruitment, PES-mediated alteration in the function of the 70-kDa molecular chaperones could be reflected in an altered behavior or expression of many client proteins. To test this idea, we examined the expression of a few well-established HSP90 client proteins, including the transmembrane tyrosine kinase receptors EGFR and HER2/ERBB2, and the downstream signaling factor AKT. These proteins are overexpressed, or aberrantly expressed, in a variety of human tumors, and have been implicated in cancer etiology and pathology. As a control for these studies, we compared the effects of PES to that of the well-established HSP90 inhibitor, 17-allylamino-17-demethoxygeldanamycin (17-AAG). 17-AAG interacts with the N-terminal region of HSP90 and inhibits its ATPase activity; this disrupts interactions of HSP90 with client proteins and leads to client-protein degradation via the ubiquitin-proteasome pathway (Whitesell, et al. 2005; Neckers, et al. 2007). To examine the expression of some HSP70/HSP90 clients, we used western blot analysis of detergent-soluble (clarified) whole cell extracts.

HSP70 [1] = target: T1, HSP70 (Homo sapiens, UniProt P0DMV8); assay: In vitro binding of B-PES on NeutrAvidin resins to 35S-labelled in vitro translated protein
Target sequence in this assay (P0DMV8 whole entry): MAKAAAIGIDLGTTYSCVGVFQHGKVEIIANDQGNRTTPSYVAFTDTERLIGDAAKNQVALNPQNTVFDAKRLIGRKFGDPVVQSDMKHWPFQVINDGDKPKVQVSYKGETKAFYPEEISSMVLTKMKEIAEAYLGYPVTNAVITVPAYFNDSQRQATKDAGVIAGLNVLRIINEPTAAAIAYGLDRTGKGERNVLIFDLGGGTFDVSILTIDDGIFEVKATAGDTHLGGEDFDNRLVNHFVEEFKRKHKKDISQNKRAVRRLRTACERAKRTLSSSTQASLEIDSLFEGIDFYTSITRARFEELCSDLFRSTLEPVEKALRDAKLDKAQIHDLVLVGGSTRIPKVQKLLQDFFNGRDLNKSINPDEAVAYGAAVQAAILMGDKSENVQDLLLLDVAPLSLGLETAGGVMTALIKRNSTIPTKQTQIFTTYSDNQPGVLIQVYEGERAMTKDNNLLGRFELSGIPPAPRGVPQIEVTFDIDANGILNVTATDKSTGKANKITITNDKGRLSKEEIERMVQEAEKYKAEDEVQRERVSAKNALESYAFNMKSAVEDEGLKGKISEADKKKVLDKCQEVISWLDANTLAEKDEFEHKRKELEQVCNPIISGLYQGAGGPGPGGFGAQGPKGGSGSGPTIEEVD

HSP70 [2] = target: T1, HSP70; assay: Capture of HA-tagged HSP70 constructs from transfected H1299 cells with biotinylated compound; format: binding; parameters: expressed in transfected cells; host or cells: H1299
Method: FIG. 1. PES Binds to HSP70. (A) Whole cell extracts (WCE) prepared from A875 and BCL-xL over-expressing U2OS human osteosarcoma cells (BX-U2OS) cells, treated with Biotin or Biotin-PES (B-PES), were captured using NeutrAvidin agarose resins. HSP70-family proteins were identified as the major product in the excised band of ˜70 kDa shown in both Coomassie gels. (B and C) WCE were prepared from the cell lines indicated following 24 h treatment with 20 μM Biotin or B-PES and examined for the expression of proteins indicated (left panel of B and C) by western blot analysis; note that different exposure times were used to visualize these proteins. […] (D) In vitro evidence for an interaction between B-PES and HSP70. Full-length human HSP70 and human HSP90 proteins were in vitro translated in the presence of ^35S-methionine, mixed with B-PES coupled to NeutrAvidin resins, and eluted using 100 mM DTT. The resulting DTT eluates were separated by polyacrylamide gel electrophoresis (SDS-PAGE) and visualized by autoradiography. (E) B-PES interacts with the C-terminal region of HSP70. H1299 cells were transfected with the indicated hemagglutinin (HA)-tagged constructs and exposed to B-PES. B-PES containing complexes were captured by NeutrAvidin Resins, eluted following 100 mM DTT treatment, and immunoblotted with anti-HA antibody following SDS-PAGE. (F) Non-transformed human IMR90 fibroblasts or H1299 lung carcinoma cells were treated with the indicated concentrations of PES for 24 h and cell viability was determined by MTT assays. (G) WCE were prepared from the cell lines indicated following 5 hr treatment with 20 μM PES or B-PES and examined for the expression of proteins indicated (left panel) by western blot analysis; note that different exposure times were used to visualize these proteins. B-PES-containing complexes were captured by NeutrAvidin resins, eluted following 50 mM DTT treatment, and immunoblotted using the indicated antibodies.
The free amide group of PES-Cl was biotinylated and added to HA-tagged HSP70-transfected H1299 cells. The treatment of the cells occurred for 6 hours. The complexes were pulled down with NeutrAvidin beads, eluted with 100 mM DTT treatments, separated with SDS-PAGE and detected with anti-HA antibody (Millipore) by Western blot.
Docking studies were performed using the C-terminal HSP70 crystal structure (FIG. 32) to elucidate the PES binding site in silico (FIG. 33). Blind docking methods were used in the program AutoDock to locate potential PES binding sites. These methods use a course grid docking approach, encompassing the entire protein, to identify favorable binding sites using a known binding ligand, and are examined by hand to support the AutoDock data. […]

HSP70 [3] = target: T1, HSP70; assay: Biotin-PES complexes captured with NeutrAvidin resins from treated cells, IP-WB; details: 20 μM
Target sequence in this assay (P0DMV8 whole entry): as above

HSC70 = HSC70 (Homo sapiens, UniProt P11142); assay: as above; details: 20 μM
HSC70, sequence (P11142 whole entry): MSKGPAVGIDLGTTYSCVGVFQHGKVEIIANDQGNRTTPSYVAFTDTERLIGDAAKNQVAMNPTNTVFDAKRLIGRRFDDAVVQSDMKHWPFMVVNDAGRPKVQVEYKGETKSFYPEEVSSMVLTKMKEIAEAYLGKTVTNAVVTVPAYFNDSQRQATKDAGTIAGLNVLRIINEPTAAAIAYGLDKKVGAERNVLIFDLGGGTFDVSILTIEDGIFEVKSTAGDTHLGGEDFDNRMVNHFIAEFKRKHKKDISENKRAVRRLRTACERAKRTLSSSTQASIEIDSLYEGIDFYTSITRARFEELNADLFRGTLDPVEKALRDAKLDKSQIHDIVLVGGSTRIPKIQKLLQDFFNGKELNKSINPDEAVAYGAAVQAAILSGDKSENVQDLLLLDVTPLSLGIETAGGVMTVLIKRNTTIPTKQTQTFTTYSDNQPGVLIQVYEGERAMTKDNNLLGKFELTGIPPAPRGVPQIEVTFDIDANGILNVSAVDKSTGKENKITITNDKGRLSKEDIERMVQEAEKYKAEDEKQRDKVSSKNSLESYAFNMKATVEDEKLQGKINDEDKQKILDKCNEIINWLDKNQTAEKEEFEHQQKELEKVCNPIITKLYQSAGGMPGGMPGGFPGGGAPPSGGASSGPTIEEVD

GRP78 = GRP78 (Homo sapiens, UniProt P11021); assay: as above; details: 20 μM, 24 h
GRP78, sequence (P11021 19-654): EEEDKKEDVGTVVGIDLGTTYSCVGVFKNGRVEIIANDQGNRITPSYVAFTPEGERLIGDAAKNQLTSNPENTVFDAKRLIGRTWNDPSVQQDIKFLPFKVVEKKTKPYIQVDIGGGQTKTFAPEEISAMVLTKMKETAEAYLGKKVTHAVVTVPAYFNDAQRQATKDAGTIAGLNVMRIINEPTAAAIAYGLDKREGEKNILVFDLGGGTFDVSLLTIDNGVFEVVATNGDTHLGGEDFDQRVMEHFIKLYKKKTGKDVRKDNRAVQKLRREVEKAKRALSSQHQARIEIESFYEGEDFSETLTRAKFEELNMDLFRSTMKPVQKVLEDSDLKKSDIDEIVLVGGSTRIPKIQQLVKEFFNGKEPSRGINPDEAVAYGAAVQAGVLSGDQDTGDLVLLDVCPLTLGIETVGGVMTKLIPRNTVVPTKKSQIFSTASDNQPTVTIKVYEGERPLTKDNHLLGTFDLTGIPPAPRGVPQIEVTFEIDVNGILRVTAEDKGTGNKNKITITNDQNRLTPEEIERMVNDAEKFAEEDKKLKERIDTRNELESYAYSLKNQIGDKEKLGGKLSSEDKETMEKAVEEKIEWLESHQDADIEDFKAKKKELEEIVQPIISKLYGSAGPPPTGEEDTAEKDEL

HSP90 = assay: as above; details: 20 μM, 24 h
HSP70 [4] = target: T1, HSP70; assay: Competition of untagged PES with B-PES for HSP70; format: binding; parameters: endogenous in cells; host or cells: human tumor cell lines (A875, BX-U2OS, U2OS, H1299, MiaPaCa2, HepG2, SKBR3, 293T); details: purified HSP70, 0.25 mM B-PES, 0.125 mM untagged PES
Method: FIG. 15. Evidence supporting HSP70 as the cellular target of PES. (A) Competition studies in vivo support HSP70 as a PES target. H1299 cells were either pre-treated with DMSO or excess (25×) untagged PES for 1 h prior to the addition of 20 μM Biotin-PES (B-PES) for 5 h, and examined for the expression of proteins indicated (left). B-PES-containing complexes were captured by NeutrAvidin Resins, and immunoblotted using the indicated antibodies. […] (B) Competition studies in vitro support HSP70 as a PES target. Purified HSP70 protein was incubated with 0.25 mM B-PES in the absence and in the presence of 0.125 mM untagged PES.
Target sequence in this assay (P0DMV8 whole entry): as the sequence (P0DMV8 whole entry) above

caspase-3, caspase-8 = assay: Western blot for caspase cleavage; format: cell-based, human; details: U2OS, 20 μM pretreatment 1 h
tumor cell lines = assay: MTT cell viability assay; format: cell-based, human; details: 20 μM pretreatment 1 h, then 20 μM PES 24 h
Method: Cell viability assays were performed using an MTT (methyl thiazolyl tetrazolium) colorimetric assay (Roche Applied Science, Cat. No. 11 465 007 001), with the following modifications. Briefly, cells (1×10^4) were plated into 24 well-assay plates in 0.5 ml media and allowed to attach overnight. […] After the incubation period, 50 μl of the water-soluble MTT labeling reagent [3-[4,5-dimethylthiazol-2-yl]-2,5-diphenyl tetrazolium bromid] were added to the cells, and the cells were incubated for 4 h in a humidified chamber at 37° C. with 5% CO2. The metabolized insoluble formazan crystals were then solubilized using 0.5 ml of the Solubilization solution (10% SDS in 0.01M HCl) per well, and the resulting colored solutions were spectrophotometrically quantified at an absorbance of 570 nm.

Structure (SMILES): C=CCNC1=C2C[C@@H](C)C[C@H](OC)[C@H](O)[C@@H](C)/C=C(\C)[C@H](OC(N)=O)[C@@H](OC)/C=C\C=C(/C)C(=O)NC(=CC1=O)C2=O [17-AAG, 17-allylamino-17-demethoxygeldanamycin]
- p62/SQSTM1 oligomers in soluble and detergent-insoluble fractions (p62/SQSTM1, LC3): neither p62/SQSTM1 accumulation nor oligomerization was noted
- activity of the 20S proteasome (20S proteasome): little, if any, effect
- fate of HSP90 client proteins (EGFR, HER2/ErbB2, AKT): causes proteasome-mediated degradation of HSP90 client proteins
- overall cellular abundance of EGFR, HER2/ErbB2 and AKT (EGFR, HER2/ErbB2, AKT; SKBR3 cells, detergent-soluble extracts, 24 h): reduction in the overall cellular abundance

Structure (SMILES): O=C(CCCCC1SCC2NC(=O)NC21)NCCSSCCC(=O)NS(=O)(=O)C#Cc1ccccc1 (centres unmarked) [B-PES]
- interaction with in vitro translated HSP70 (HSP70 [1]): interacts with in vitro translated HSP70
- interaction with amino-terminal ATPase domain of HSP70 (HSP70 [2]; amino acids 2-385): not the amino-terminal ATPase domain
- interaction with carboxyl-terminal substrate-binding domain of HSP70 (HSP70 [2]; amino acids 386-641): interacts with the carboxyl-terminal substrate-binding domain
- HSP70 captured with B-PES (HSP70 [3]; IMR90 fibroblasts): did not observe a PES interaction
- interaction with endogenous HSP70 (HSP70 [3]; several cell lines, 24 h): interacts with HSP70
- HSP70 captured with B-PES (HSP70 [3]; tumor cells, 5 hr (FIG. 1G)): found together with this small molecule
- interaction with endogenous HSC70 (HSC70; 24 h): no detectable interaction
- HSC70 captured with B-PES (HSC70; IMR90 fibroblasts): did not observe a PES interaction
- HSC70 captured with B-PES (HSC70; tumor cells, 5 hr (FIG. 1G)): found together with this small molecule
- interaction with endogenous GRP78 (GRP78): no detectable interaction
- interaction with endogenous HSP90 (HSP90): no detectable interaction
- B-PES/HSP70 complex formation (HSP70 [4]): direct interaction between B-PES and HSP70

Structure (SMILES): C[C@@H]1C[C@@H]([C@H](O)CC2CC(=O)NC(=O)C2)C(=O)[C@@H](C)C1 [CHX, cycloheximide]
- PES-induced p62/SQSTM1 accumulation and oligomerization under co-treatment (p62/SQSTM1, LC3; co-treated with PES for 6 h): reduced the accumulation and oligomerization of the autophagy marker p62/SQSTM1

Structure (SMILES): CC(C)C[C@H](NC(=O)[C@H](Cc1ccccc1)NC(=O)c1cnccn1)B(O)O [Velcade, bortezomib]
- p62/SQSTM1 oligomers in soluble and detergent-insoluble fractions (p62/SQSTM1, LC3): promoted p62/SQSTM1 oligomerization primarily in the detergent-insoluble fraction

Structure (SMILES): COC(=O)C[C@H](NC(=O)[C@H](C)NC(=O)[C@@H](NC(=O)OCc1ccccc1)C(C)C)C(=O)CF [Z-VAD-FMK] (Cbz-Val-Ala-Asp(OMe)-CH2F)
- cisplatin- and camptothecin-mediated caspase cleavage (caspase-3, caspase-8): inhibited cisplatin- as well as camptothecin-mediated caspase cleavage
- effect on PES-mediated loss of cell viability (tumor cell lines): did not alter PES-mediated loss of cell viability
